Data set [1] has as its system PKC. The experiment in a line: endogenous PKC activity in lysates of treated H23 cells. The following applies: H23 cells treated with 10 nM, three day assay.
Data set [2] deals with H23 cells. The data set is described as follows: cell viability assay with camptothecin, H23. In kind it is cell-based, human. Here is the method:
(§1) Control cells received no pretreatment. […] CK2 activator treatment was for the duration of the assay. Cell viability was scored 3 days post-start of camptothecin treatment.
(§2) Viability assays were performed 24 hours post-vector treatment by exposing cells for 24 hours to increasing doses of camptothecin (a topoisomerase I inhibitor) in triplicate in a 96-well viability assay, and assaying them for viability 5 days post-start of vector treatment (FIG. 5B). For each growth curve, cell viabilities were normalized to the viability of cells treated with vector only (no camptothecin), to enable a direct visualization of the sensitization effect.
Studies of a large panel of cell lines have shown that cell lines with overexpressed CK2 (FIGS. 11B1-B3 and 11C1-C3) display hyper serine phosphorylation of topo I (FIG. 11D) that correlates with sensitivity to camptothecin (FIG. 11A). […] Cells were plated at 2000 cells per well and allowed to attach. Triplicate wells were then treated with the indicated doses of camptothecin for 18 hours, and monitored for viability 3 days post-start of treatment. Viability is represented as a % of control, untreated, cell viability. Referring to FIGS. 11B1-B3, PKC (B1), cdk1 (B2), and CK2 (B3) levels in cancer cell lines: Cell lysates were prepared from the indicated cancer cell lines and assayed for enzymatic activities, or evaluated by Western analysis for total PKC, cdk1, or CK2 protein levels. Actin levels served as a control (same control for PKC, cdk1, and CK2). Referring to FIGS. 11C1-C3 PKC (C1), cdk1 (C2), and CK2 (C3) levels in normal cell lines, compared to H358 and H23: Cell lysates were prepared from the indicated cell lines and evaluated as before. Numbers below Western blots indicate digital reading of band intensities of PCK, cdk1, or CK2 Western blots, relative to H358. Referring to FIG. 11D, topo-I immunoprecipitation followed by topo-I Western (top row) or phosphoserine Western (bottom row). Numbers below Western blot are digital readings of ser-P band intensities relative to H358.

For data set [3], the system named is CK2α transcription. The experiment in a line: RT-PCR of CK2α mRNA in treated H23 cells. The following applies: 10 nM, 3 days.
Data set [4] has as its target T1, CK2 protein (α subunit) (Homo sapiens, UniProt P68400).
T1 construct: endogenous in cells; host or cells: H23 cells (lysates)
The data set is described as follows: Western analysis of CK2 protein in lysates of treated cells. Type of data set: cell-based. The following applies: H23 cells, 72 hours.

In data set [5] the test system is purified PKC. The data set is described as follows: in vitro kinase assay of purified PKC. The following applies: 10 nM.
Data set [6] deals with T2, purified CK2 holoenzyme (Homo sapiens, UniProt P68400).
T2 construct: purchased Promega, Madison, Wis
T2 sequence (P68400 whole entry): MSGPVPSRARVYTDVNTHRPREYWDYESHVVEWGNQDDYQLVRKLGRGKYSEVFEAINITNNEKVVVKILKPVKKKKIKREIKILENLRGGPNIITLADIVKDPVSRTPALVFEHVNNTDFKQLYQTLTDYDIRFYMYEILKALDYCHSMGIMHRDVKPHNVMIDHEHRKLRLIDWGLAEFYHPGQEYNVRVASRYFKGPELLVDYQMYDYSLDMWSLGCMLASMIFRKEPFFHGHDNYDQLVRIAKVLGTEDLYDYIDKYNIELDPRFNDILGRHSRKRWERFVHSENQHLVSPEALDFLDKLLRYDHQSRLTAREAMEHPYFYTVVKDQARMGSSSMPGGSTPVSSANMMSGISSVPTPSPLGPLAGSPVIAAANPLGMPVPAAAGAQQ
T2 sequence (P67870 whole entry partner): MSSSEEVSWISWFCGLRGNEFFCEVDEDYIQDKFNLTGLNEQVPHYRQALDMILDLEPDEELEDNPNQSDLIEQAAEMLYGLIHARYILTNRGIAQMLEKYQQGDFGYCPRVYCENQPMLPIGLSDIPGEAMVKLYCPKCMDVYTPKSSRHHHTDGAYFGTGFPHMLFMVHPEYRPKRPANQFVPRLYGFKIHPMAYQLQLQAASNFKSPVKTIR
The experiment in a line: in vitro kinase assay of purified CK2 holoenzyme. Type of data set: biochemical. The following applies: 10 nM. An excerpt: (§3) P=supercoiled plasmid only.

The target of data set [7] is T3, cdk1 (Homo sapiens, UniProt P06493). The experiment in a line: endogenous cdk1 activity in lysates of treated H23 cells. The following applies: H23 cells treated with 10 nM, three day assay. In kind it is cell-based. Further details: endogenous in cells; host or cells: H23 cells (lysates).
Excerpt: as §3
Target sequence in this assay (P06493 whole entry): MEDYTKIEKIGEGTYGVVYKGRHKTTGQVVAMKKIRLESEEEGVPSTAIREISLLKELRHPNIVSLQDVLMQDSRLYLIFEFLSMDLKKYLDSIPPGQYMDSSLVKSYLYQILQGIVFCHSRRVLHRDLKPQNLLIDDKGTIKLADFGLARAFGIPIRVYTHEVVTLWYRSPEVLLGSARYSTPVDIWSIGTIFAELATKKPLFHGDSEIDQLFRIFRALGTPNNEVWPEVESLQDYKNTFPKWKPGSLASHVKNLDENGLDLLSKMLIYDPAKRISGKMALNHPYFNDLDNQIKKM
Target sequence in this assay (P14635 whole entry partner): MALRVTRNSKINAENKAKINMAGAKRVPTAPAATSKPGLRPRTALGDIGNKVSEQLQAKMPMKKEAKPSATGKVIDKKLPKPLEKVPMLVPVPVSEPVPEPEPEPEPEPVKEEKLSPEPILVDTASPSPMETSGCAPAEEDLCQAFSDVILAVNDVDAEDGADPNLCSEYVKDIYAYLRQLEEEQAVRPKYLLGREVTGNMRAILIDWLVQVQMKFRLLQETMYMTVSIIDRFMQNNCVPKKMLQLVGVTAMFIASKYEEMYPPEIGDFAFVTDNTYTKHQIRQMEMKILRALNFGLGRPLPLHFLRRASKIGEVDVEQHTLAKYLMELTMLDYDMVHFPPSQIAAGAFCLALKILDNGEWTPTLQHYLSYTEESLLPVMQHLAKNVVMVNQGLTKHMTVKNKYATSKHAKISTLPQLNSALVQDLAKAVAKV

Data set [8] has as its system ARF/topoisomerase I complex. The data set is described as follows: topo I immunoprecipitation followed by ARF Western in treated cells. Type of data set: cell-based, human. The following applies: H23 cells treated with CK2 activator.
In data set [9] the test system is topo I serine phosphorylation. The data set is described as follows: topo I immunoprecipitation followed by phosphoserine Western in treated cells. The following applies: digital quantitation of band intensities.
The target in data set [10] is T4, purified cdk1 (Homo sapiens, UniProt P06493).
T4 construct: purchased Enzo Life Sciences, Farmingdale, N.Y
T4 sequence (P06493 whole entry, species assumed): as the sequence (P06493 whole entry) above
T4 sequence (P14635 whole entry partner, species assumed): as the sequence (P14635 whole entry partner) above
The experiment in a line: in vitro kinase assay of purified cdk1. Type of data set: biochemical. The following applies: 10 nM.
Excerpt: as §3

In data set [11] the target is T5, CK2α catalytic subunit (Homo sapiens, UniProt P68400).
T5 construct: purchased Active Motif, Carlsbad, Calif
T5 sequence (P68400 whole entry): as the sequence (P68400 whole entry) above
The experiment in a line: in vitro kinase assay of purified CK2α catalytic subunit. In kind it is biochemical. The following applies: 10 nM.
Excerpt: as §3

In data set [12] the test system is CK2. The experiment in a line: CK2 activity in nuclear extracts of treated H358 or H23 cells. Type of data set: cell-based, human.
Data set [13] relates to topo I phosphoserine 506 epitope. The experiment in a line: Western of phosphoserine 506 epitope of topo I in treated cells. Type of data set: cell-based, human.
The subject of data set [14] is topoisomerase I. The experiment in a line: topoisomerase I plasmid relaxation assay with nuclear extracts of treated cells. In kind it is cell-based, human. The following applies: 72 hours after treatment.
Procedure: Topoisomerase I Assays: Assays were carried out using the Topoisomerase I Assay Kit (Topogen, Florida), according to the instructions provided with the kit and using the high salt nuclear extracts prepared as described above. […] The reaction was stopped by adding stop loading dye supplied in the kit and electrophoresed on a 1% agarose/TAE (10 mM TRIS-acetate/1 mM EDTA) gel until the dye front had reached the bottom of the gel. The gel was then stained for 20 minutes in 0.5 μg/mL ethidium bromide, destained in deionized water for 30 minutes, and electrophoresed for an additional hour to enhance band visibility. The gel was photographed and band intensities were analyzed digitally using a Kodak digital camera and analysis software. Some assays were carried out with alkaline phosphatase-treated extracts, prepared as described below, or in the presence of ARF or ARF1β thioredoxin fusion proteins (3, 9, 27 ng), prepared as described above (see pull-down assays).
Data set [15] has as its target T3, cdk1. The following applies: cited from earlier work.
Target sequence in this assay (P06493 whole entry, species assumed): as the sequence (P06493 whole entry) above
Target sequence in this assay (P14635 whole entry partner, species assumed): as the sequence (P14635 whole entry partner) above
The test system of data set [16] is H358 cells. The experiment in a line: cell viability assay with camptothecin, H358. Type of data set: cell-based, human. The following applies: pretreatment then camptothecin 18 hours, 3-day viability. The method, then: as §1, §2
Studies of a large panel of cell lines have shown that cell lines with overexpressed CK2 (FIGS. 11B1-B3 and 11C1-C3) display hyper serine phosphorylation of topo I (FIG. 11D) that correlates with sensitivity to camptothecin (FIG. 11A). […] Triplicate wells were then treated with the indicated doses of camptothecin for 18 hours, and monitored for viability 3 days post-start of treatment. […] Referring to FIGS. 11B1-B3, PKC (B1), cdk1 (B2), and CK2 (B3) levels in cancer cell lines: Cell lysates were prepared from the indicated cancer cell lines and assayed for enzymatic activities, or evaluated by Western analysis for total PKC, cdk1, or CK2 protein levels. […] Numbers below Western blot are digital readings of ser-P band intensities relative to H358.

Data set [17] concerns PKC. The following applies: cited from earlier work.

T1 sequence (P68400 whole entry): as the sequence (P68400 whole entry) above

In the case of `CCn1cnc(C(N)=O)c1C(N)=O` [CK2 activator], in data set [1], the “effect on endogenous PKC activity” value is reported as “no effect”. Also, the “effect on cell viability (activator alone)” value in data set [2] (10 nM) is on record as “no effect on cell viability”. For the same molecule, the “change of cellular response to camptothecin” value in [2] (10 nM activator for duration of assay, camptothecin 18 hours, 3-day viability) is reported as “more sensitive to camptothecin”. Besides, the “lowest dose that could activate CK2 while having no effect on cell viability” value in data set [2] (range of 5-100 nM tested) stood at 10 nM. Also, the CK2α transcription entry in data set [3] is recorded as “not CK2α transcription”. Moreover, the CK2 protein accumulation entry in data set [4] is on record as “enhances the accumulation of CK2 protein”. In data set [5], the “effect on purified PKC activity” value is listed as “no effect”. In addition, the “stimulation of purified CK2 holoenzyme activity” value in data set [6] is reported as about 6 fold. For the same molecule, the “effect on endogenous cdk1 activity” value in data set [7] is reported as “no effect”. In addition, in [8], the “p14ARF/topo I complex formation” value is reported as “complex formation occurs”. The “increase in topo I phosphorylation relative to untreated H23 cells” value in data set [9] (H23 cells) is given as about 4.7 fold. Moreover, the “effect on purified cdk1 activity” value in data set [10] is listed as “no effect”. In addition, in data set [11], the “stimulation of CK2α catalytic subunit activity” value is given as about 6 fold. Moreover, in data set [12] (H23 cells, 10 nM for duration of assay), the “increase in CK2 activity relative to untreated cells” value came out at 4 fold. For the same molecule, in data set [12] (H358 cells, similar treatment (data not shown)), the “increase in CK2 activity” value is given as 10%. Besides, the “cellular levels of the phosphoserine 506 epitope” value in data set [13] (H23 cells treated as in FIG. 13B) was “induces cellular levels of the phosphorylated epitope”. The “conversion of supercoiled plasmid to relaxed form by nuclear extract” value in data set [14] (H23 cells, 0.75 μg lysates protein per reaction) is “converts virtually all of the supercoiled form to relaxed form”.

Consider `Brc1c(Br)c(Br)c2[nH]nnc2c1Br` [TBB, 4,5,6,7-tetrabromobenzotriazole], for which the “effect on cdk1” value in data set [15] is recorded as “minimal effects”. Further, the “change of cellular response to camptothecin” value in data set [16] is reported as “more resistant to camptothecin”. Further, the “topo I serine phosphorylation, % of untreated H358 cells” value in [9] (H358 cells) was “about 10%”. For the same molecule, the “effect on PKC” value in data set [17] is on record as “minimal effects”. Further, the “cellular levels of the phosphoserine 506 epitope” value in data set [13] (H358 cells treated as in FIG. 13A) is “suppresses cellular levels of the phosphoserine epitope”. Also, the “conversion of supercoiled plasmid to relaxed form by nuclear extract” value in data set [14] (H358 cells, 0.75 μg lysate per reaction) is “essentially none is converted”.

(Values after patent US9115385B2, “Methods and compositions for topoisomerase I modulated tumor suppression” (RG BIOPHARMA, LLC, priority 2006, dated 2015).)
